Here are results for two molecules from patent publication US10485841B2, “Method for producing dry extracts” (Bionorica SE, priority 2011, dated 2019).

A value given as a limit tells only on which side of the number the result lay.

In test [1] the test system is carrageen-induced paw oedema. In words: carrageen-induced paw oedema in rats (Example 2). The conditions noted are these: 30 minutes following carrageen injection, FIG. 3. It is filed as in vivo, rat. An excerpt: (§1) The anti-inflammatory activity of Sinupret could be confirmed in the animal model. For example, carrageen-induced paw oedema in rats (Male Wistar Han rats, 220-230 g) was selected as the test model. In this model, it was possible to examine the anti-inflammatory effect of test substances by measuring their inhibitory effect on the paw oedema or pleuritis caused by carrageen. The following were used as reference substances: (RS)-2-[4-(2-methylpropyl)phenyl]propanoic acid (Ibuprofen®) and 2-[1-(4-chlorobenzoyl)-5-methoxy-2-methyl-1H-indol-3-yl] acetic acid (indomethacin, “indo”). In the present tests, groups of 10 rats in each case were treated either with Ibuprofen®, indomethacin, Sinupret® dry extract (SIN TR) or Sinupret® drug mixture (SIN, as commercially available) and were injected one hour later with carrageen. The inhibition of the oedema formation by the test and reference substances was determined at various moments in time after carrageen injection, wherein the paw volume of animals treated only with carrageen was used as a control (vehicle=blank control). The results of these tests are presented in Tables 1 and 2 and in FIGS. 3 to 6 and will be explained hereinafter.

Test [2] relates to carrageen-induced pleuritis. As to the kind of experiment: carrageen-induced pleuritis in rats. The class given is in vivo, rat. As to conditions: 5 mg/kg.
Description: as §1
Rats (10 per group) were each treated with 100 mg/kg or 500 mg/kg of SIN and by way of comparison with 5 mg/kg of indomethacin and blank and were injected 1 hour later with carrageen.
“Inflammatory cells” correlates to PMN (polymorphonuclear neutrophils) accumulation/infiltration.
Statistics: average+/−SEM, n=10, ** p<0.01; ***p<0.001 vs vehicle (blank) (Tukey Test), p<0.05 is statistically significant.
Rats (10 per group) were each treated with 100 mg/kg or 500 mg/kg of SIN TR and by way of comparison with 5 mg/kg of indomethacin and blank and were injected one hour later with carrageen.

The mark [3] stands for this setting: 4 h after carrageen, mean ± SEM, n=10.

For the molecule `CC(C)Cc1ccc(C(C)C(=O)O)cc1` (racemic) [Ibuprofen®, (RS)-2-[4-(2-methylpropyl)phenyl]propanoic acid], the “inhibition of paw oedema” value in test [1] is “still did not show any anti-inflammatory effect”.
As to `COc1ccc2c(c1)c(CC(=O)O)c(C)n2C(=O)c1ccc(Cl)cc1` [Indomethacin, 2-[1-(4-chlorobenzoyl)-5-methoxy-2-methyl-1H-indol-3-yl] acetic acid], in test [2] (4 h), the “exudate volume, inhibition vs vehicle” value was “(96%)” and the “inflammatory cells, inhibition vs vehicle” value is on record as “(70%)”. Further, in test [2] (setting [3]), the IL1β came out at 3.17 ± 0.18 ng/rat, the LTB4 amounted to 0.43 ± 0.02 ng/rat, the PGE2 is reported as under 0.125 ng/rat and the TNFα was determined as 5.48 ± 0.28 ng/rat. Also, in test [2] (setting [3]), the exudate volume turned out to be 0.009 ± 0.003 mL and the “inflammatory cells × 10^6” value is 11.4 ± 0.93 × 10^6.
